Patent US6878722B2, “Substituted cycloalkyl P1′ hepatitis C virus inhibitors” (Bristol-Myers Squibb Company, priority 2002, dated 2005)
pIC50: −log10 of the molar value.

Test system: human pancreatic chymotrypsin
Experiment: Specificity assay, chymotrypsin
Format: biochemical
Settings: 2 hr pre-incubation
Procedure: The specificities of compounds of the present invention were determined against a variety of serine proteases: human sputum elastase (HS), porcine pancreatic elastase (PPE) and human pancreatic chymotrypsin and one cysteine protease: human liver cathepsin B. In all cases a 96-well plate format protocol using colorimetric p-nitroaniline (pNA) substrate specific for each enzyme was used as described previously (Patent WO 00/09543) with some modifications to the serine protease assays. All enzymes were purchased from Sigma while the substrates were from Bachem.
Each assay included a 2 hr enzyme-inhibitor pre-incubation at room temperature followed by addition of substrate and hydrolysis to ˜30% conversion as measured on a Spectramax Pro microplate reader. Compound concentrations varied from 100 to 0.4 μM depending on their potency. […]
The percentage of inhibition was calculated using the formula: [1−((UVinh−UVblank)/(UVctl−UVblank))]×100 […]

C=CC1C[C@]1(NC(=O)[C@@H]1C[C@@H](Oc2cc(-c3ccccc3)nc3cc(OC)ccc23)CN1C(=O)[C@@H](NC(=O)OC(C)(C)C)C(C)(C)C)C(=O)NS(=O)(=O)C1(C)CC1 (stereo in doubt) [Compound 1, (1-{4-(7-Methoxy-2-phenylquinolin-4-yloxy)-2-[1-(1-methylcyclopropanesulfonylaminocarbonyl)-2-vinylcyclopropylcarbamoyl]pyrrolidine-1-carbonyl}-2,2-dimethylpropyl)carbamic acid tert-butyl ester]
pIC50: < 4.00
